Measurements published in the supplement of paper PMC12463676, “Small-molecule dissolution of stress granules by redox modulation benefits ALS models” (Nature Chemical Biology, 2025).

Assays:
[1] = compound: NC(=O)CCCCC1CCSS1 [lipoamide]; experiment: thermal stability z-score vs DMSO; higher = more thermally stabilized by treatment; details: HeLa, lipoamide concentration 100 µM
Description: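 Cellular thermal proteome profiling in HeLa cells. Cells were treated with 100 µM lipoamide for 1 h, with or without 1 mM arsenate for a further 1 h, then heated to ten temperatures (37-66.3 °C), and soluble protein was quantified by TMT mass spectrometry relative to 0.1% DMSO controls. The thermal stability score (sum of log2 fold changes minus the abundance score) was transformed to a z-score; mean of n = 3 experiments.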

[2] = compound: O=[As]([O-])(O)O.[K+] [potassium arsenate]; experiment: as above; details: HeLa; arsenate concentration 1 mM
Description: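 Cellular thermal proteome profiling in HeLa cells treated with 1 mM arsenate for 1 h (DMSO pretreatment), heated to ten temperatures (37-66.3 °C). Soluble protein was quantified by TMT mass spectrometry relative to DMSO controls; the thermal stability score was transformed to a z-score; mean of n = 3 experiments.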

[3] = arsenate co-treatment: 1 mM arsenate 1 h
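Note: each temperature applied for 3 min, abundance score taken as mean log2 fold change at the two lowest temperatures, z-score obtained by mean subtraction and division by SD.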

Chain of UniProt P51148 (P51148 whole entry): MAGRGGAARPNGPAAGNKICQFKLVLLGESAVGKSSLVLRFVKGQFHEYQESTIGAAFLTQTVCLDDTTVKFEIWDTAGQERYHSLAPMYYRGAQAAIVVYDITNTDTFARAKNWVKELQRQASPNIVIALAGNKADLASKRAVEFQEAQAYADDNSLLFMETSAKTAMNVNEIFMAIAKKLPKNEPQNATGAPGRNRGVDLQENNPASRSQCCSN
Chain of UniProt Q86Y79 (Q86Y79 whole entry): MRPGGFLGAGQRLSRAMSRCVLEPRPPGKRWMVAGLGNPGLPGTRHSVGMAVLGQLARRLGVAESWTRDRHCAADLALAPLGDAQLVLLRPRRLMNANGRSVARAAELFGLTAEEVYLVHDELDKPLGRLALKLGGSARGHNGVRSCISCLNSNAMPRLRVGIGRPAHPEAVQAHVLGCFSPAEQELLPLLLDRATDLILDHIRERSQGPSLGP
Chain of UniProt Q9Y597 (Q9Y597 whole entry): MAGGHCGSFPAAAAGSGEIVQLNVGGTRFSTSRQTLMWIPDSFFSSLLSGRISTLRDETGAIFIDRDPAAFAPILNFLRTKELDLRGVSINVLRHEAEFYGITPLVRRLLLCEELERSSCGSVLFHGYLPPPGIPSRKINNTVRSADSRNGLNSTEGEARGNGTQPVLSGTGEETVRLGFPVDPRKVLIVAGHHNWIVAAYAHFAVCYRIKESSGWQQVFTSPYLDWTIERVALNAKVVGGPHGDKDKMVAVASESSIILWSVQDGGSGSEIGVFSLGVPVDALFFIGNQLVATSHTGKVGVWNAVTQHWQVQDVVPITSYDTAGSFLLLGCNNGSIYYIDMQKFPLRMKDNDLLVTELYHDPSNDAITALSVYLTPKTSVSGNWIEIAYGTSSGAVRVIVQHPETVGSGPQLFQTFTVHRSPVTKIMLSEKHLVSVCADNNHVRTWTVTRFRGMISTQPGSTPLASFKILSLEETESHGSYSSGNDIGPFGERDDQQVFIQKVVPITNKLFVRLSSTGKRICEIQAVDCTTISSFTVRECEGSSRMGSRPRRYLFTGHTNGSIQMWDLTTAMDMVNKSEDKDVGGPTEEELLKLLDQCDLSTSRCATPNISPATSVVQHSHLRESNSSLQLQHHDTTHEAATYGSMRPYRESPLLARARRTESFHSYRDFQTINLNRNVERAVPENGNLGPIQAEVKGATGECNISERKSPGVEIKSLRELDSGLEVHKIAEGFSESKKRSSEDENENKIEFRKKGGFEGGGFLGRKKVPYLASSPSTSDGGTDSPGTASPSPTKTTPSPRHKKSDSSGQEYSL
Chain of UniProt O95197 (O95197 whole entry): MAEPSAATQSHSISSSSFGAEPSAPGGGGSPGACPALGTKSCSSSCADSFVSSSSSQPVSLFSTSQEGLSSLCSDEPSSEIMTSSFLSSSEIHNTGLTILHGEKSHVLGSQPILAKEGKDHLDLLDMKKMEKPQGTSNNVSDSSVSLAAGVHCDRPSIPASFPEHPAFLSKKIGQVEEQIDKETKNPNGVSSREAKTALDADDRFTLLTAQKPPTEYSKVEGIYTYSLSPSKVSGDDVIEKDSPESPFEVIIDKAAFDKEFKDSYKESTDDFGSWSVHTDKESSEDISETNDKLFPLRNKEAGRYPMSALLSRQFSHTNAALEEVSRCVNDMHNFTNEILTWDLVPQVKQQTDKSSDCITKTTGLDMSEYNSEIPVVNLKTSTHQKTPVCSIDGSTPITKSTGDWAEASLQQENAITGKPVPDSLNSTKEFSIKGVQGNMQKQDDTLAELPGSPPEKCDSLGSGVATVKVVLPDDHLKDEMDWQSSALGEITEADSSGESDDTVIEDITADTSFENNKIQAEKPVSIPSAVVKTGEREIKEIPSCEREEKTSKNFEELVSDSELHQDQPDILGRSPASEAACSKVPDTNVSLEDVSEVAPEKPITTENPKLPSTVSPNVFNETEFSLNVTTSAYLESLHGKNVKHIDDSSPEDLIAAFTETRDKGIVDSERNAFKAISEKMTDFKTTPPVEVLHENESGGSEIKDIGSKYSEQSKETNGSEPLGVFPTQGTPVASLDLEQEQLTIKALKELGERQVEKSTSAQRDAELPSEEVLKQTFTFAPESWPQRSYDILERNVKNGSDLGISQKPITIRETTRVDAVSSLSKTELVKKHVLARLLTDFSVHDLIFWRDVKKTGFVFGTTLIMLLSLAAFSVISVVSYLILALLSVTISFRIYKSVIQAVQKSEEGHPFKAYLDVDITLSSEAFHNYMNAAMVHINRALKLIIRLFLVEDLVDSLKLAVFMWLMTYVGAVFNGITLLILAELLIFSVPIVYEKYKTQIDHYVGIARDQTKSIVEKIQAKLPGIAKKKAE
Chain of UniProt O60264 (O60264 whole entry): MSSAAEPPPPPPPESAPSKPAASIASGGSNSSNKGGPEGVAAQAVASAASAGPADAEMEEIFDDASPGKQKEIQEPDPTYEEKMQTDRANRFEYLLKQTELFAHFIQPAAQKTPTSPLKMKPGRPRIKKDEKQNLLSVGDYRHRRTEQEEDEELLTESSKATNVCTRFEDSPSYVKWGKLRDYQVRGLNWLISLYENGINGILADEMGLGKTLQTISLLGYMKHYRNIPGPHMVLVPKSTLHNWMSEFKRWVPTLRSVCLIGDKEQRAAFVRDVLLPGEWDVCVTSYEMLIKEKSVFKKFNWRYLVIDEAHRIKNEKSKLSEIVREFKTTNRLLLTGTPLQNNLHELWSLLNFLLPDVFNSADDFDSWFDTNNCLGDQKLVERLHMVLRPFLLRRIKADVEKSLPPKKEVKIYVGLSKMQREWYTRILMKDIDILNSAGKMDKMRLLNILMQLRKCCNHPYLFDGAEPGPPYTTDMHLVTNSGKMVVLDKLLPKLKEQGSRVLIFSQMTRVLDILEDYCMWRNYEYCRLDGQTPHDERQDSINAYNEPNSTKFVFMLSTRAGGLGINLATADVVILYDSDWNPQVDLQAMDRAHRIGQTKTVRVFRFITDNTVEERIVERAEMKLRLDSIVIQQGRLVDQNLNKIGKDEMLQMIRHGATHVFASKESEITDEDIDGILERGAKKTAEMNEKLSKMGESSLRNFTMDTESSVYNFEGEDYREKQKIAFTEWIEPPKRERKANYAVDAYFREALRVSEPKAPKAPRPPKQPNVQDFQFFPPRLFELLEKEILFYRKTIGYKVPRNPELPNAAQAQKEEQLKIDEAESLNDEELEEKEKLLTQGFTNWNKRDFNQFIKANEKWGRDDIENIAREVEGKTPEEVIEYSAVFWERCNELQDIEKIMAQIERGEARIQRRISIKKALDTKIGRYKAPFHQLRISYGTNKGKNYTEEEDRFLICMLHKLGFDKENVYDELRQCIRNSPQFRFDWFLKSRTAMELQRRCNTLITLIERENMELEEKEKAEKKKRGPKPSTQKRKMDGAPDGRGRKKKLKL
Chain of UniProt Q9UHN1 (Q9UHN1 whole entry): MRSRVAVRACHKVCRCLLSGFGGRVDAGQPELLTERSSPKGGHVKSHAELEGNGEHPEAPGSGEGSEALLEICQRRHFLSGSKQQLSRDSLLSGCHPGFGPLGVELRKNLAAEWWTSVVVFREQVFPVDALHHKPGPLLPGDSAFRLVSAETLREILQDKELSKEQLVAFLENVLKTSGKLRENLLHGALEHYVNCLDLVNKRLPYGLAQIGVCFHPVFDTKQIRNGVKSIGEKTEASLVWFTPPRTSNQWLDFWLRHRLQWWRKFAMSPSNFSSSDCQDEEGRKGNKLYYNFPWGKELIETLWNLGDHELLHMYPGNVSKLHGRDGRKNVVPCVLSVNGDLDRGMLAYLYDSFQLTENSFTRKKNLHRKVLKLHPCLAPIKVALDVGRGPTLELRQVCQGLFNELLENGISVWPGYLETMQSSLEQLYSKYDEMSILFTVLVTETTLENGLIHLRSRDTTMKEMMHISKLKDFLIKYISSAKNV
Chain of UniProt P49189 (P49189 whole entry): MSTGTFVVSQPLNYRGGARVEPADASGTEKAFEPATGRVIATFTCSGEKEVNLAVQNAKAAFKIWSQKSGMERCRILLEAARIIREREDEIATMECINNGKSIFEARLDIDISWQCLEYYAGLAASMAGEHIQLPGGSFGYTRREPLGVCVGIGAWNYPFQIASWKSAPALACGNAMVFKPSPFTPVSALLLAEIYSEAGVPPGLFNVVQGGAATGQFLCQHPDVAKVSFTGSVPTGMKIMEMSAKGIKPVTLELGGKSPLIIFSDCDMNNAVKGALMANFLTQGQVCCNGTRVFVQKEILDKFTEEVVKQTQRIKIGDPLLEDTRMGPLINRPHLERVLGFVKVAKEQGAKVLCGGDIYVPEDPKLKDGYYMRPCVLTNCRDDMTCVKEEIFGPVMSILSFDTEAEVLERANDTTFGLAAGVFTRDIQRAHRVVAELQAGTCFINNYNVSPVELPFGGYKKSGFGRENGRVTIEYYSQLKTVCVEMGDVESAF
Chain of UniProt Q8TB36 (Q8TB36 whole entry): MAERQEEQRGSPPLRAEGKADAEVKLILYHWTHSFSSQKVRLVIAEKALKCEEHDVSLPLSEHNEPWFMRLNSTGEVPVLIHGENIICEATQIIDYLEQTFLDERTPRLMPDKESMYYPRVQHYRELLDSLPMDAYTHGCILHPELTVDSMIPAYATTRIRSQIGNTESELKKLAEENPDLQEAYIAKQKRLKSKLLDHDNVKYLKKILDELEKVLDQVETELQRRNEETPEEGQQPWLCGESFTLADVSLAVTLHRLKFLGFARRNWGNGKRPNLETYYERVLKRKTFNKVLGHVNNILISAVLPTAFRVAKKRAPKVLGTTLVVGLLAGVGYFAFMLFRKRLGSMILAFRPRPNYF
Chain of UniProt Q9BWH2 (Q9BWH2 whole entry): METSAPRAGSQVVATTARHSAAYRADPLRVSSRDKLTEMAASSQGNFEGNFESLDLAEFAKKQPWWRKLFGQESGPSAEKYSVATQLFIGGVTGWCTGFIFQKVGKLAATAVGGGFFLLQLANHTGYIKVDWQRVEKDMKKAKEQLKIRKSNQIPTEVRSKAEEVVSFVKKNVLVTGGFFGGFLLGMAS

Row | Target | thermal stability z-score [1, 3] | thermal stability z-score ([1]; arsenate co-treatment: none) | thermal stability z-score [2]
1 | SMARCA5 (UniProt O60264) | 0.76 | 1.44 | -0.922
2 | AKT1 (UniProt P31749) | -0.698 | -0.638 | -1.01
3 | RTN3 (UniProt O95197) | 0.112 | 0.0244 | 0.525
4 | NCL (UniProt P19338) | 0.724 | 0.77 | -0.611
5 | GDAP1 (UniProt Q8TB36) | -0.141 | -0.313 | -0.354
6 | POLG2 (UniProt Q9UHN1) | 0.00241 | -0.266 | -0.833
7 | PLGRKT (UniProt Q9HBL7) | 0.684 | 0.147 | 0.783
8 | DOCK6 (UniProt Q96HP0) | -0.406 | -0.347 | -0.391
9 | ARMT1 (UniProt Q9H993) | 0.0878 | 0.255 | 0.195
10 | FAM50A (UniProt Q14320) | -0.0555 | 0.352 | 0.455
11 | LSG1 (UniProt Q9H089) | -0.18 | 0.17 | 3.55
12 | MLLT4 (UniProt P55196) | -0.572 | -0.126 | -0.113
13 | GTF2I (UniProt P78347) | -0.117 | 0.0929 | -0.472
14 | NRBP1 (UniProt Q9UHY1) | -0.349 | -0.151 | 0.23
15 | PPP5C (UniProt P53041) | 0.859 | 0.0455 | 0.649
16 | MTPAP (UniProt Q9NVV4) | 0.621 | 0.936 | -0.28
17 | LCMT2 (UniProt O60294) | -0.107 | -0.78 | -0.332
18 | KCTD3 (UniProt Q9Y597) | 0.366 | 0.263 | -0.15
19 | ZNF579 (UniProt Q8NAF0) | -0.34 | -0.434 | 0.155
20 | FUNDC2 (UniProt Q9BWH2) | 0.0791 | -0.555 | -0.587
21 | DHCR24 (UniProt Q15392) | 0.408 | 0.354 | 0.726
22 | RAB5C (UniProt P51148) | 0.345 | 0.119 | 0.552
23 | ALDH9A1 (UniProt P49189) | -0.257 | -0.212 | -1.15
24 | PUM2 (UniProt Q8TB72) | -0.565 | 0.382 | -0.343
25 | POGZ (UniProt Q7Z3K3) | -0.198 | 0.0592 | -0.422
26 | ATRX (UniProt P46100) | -0.0326 | 0.195 | -0.0925
27 | PTRH1 (UniProt Q86Y79) | 0.0851 | 0.0188 | -0.214
28 | PMM2 (UniProt O15305) | -0.186 | 0.197 | 1.4
29 | DAGLB (UniProt Q8NCG7) | 0.268 | 0.278 | 0.0163
30 | TAB2 (UniProt Q9NYJ8) | 0.0348 | -0.0384 | -0.292
